From PubChem BioAssay AID1845209 (Molecular Pharmacology Branch, DTP, NCI, 2023)

Test system: NCI-H211 tumor spheroids, viability percent test/control
Test: Anticancer human tumor NCI-H211 cell line growth inhibition;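 further: spheroids exposed to agents for seven days before readout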
Settings: spheroids with HUVEC and MSC; for IC50: curve of first compound; for viability, T/C: stronger effect = lower value
Method in brief: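 Complex tumor spheroids combined malignant cells with endothelial cells and mesenchymal stem cells. DNA-damaging drugs and DNA repair inhibitors were tested alone and in combination, at half-log dilutions down from clinical Cmax (top 10 microM if Cmax unknown), 0.25% DMSO final.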

[1] = second compound 1 µM, first compound 0.00949 µM
[2] = second compound 1 µM, first compound 0.03 µM
[3] = second compound 1 µM, first compound 0.0949 µM
[4] = second compound 1 µM, first compound 0.3 µM
[5] = second compound 1 µM, first compound 0.949 µM
[6] = second compound 1 µM, first compound 3 µM
[7] = second compound 3.16 µM, first compound 0.00949 µM
[8] = second compound 3.16 µM, first compound 0.03 µM
[9] = second compound 3.16 µM, first compound 0.0949 µM
[10] = second compound 3.16 µM, first compound 0.3 µM
[11] = second compound 3.16 µM, first compound 0.949 µM
[12] = second compound 3.16 µM, first compound 3 µM
[13] = second compound 10 µM, first compound 0.00949 µM
[14] = second compound 10 µM, first compound 0.03 µM
[15] = second compound 10 µM, first compound 0.0949 µM
[16] = second compound 10 µM, first compound 0.3 µM
[17] = second compound 10 µM, first compound 0.949 µM
[18] = second compound 10 µM, first compound 3 µM
[19] = second compound 31.6 µM, first compound 0.00949 µM
[20] = second compound 31.6 µM, first compound 0.03 µM
[21] = second compound 31.6 µM, first compound 0.0949 µM
[22] = second compound 31.6 µM, first compound 0.3 µM
[23] = second compound 31.6 µM, first compound 0.949 µM
[24] = second compound 31.6 µM, first compound 3 µM
[25] = second compound 100 µM, first compound 0.00949 µM
[26] = second compound 100 µM, first compound 0.03 µM
[27] = second compound 100 µM, first compound 0.0949 µM
[28] = second compound 100 µM, first compound 0.3 µM
[29] = second compound 100 µM, first compound 0.949 µM
[30] = second compound 100 µM, first compound 3 µM

Structure (SMILES) | IC50 (second compound 1 µM) | IC50 (second compound 3.16 µM) | IC50 (second compound 10 µM) | IC50 (second compound 31.6 µM) | IC50 (second compound 100 µM) | viability, T/C [3] | viability, T/C [4] | viability, T/C [5] | viability, T/C [6] | viability, T/C [9] | viability, T/C [10] | viability, T/C [11] | viability, T/C [12] | viability, T/C [15] | viability, T/C [16] | viability, T/C [17] | viability, T/C [18] | viability, T/C [21] | viability, T/C [22] | viability, T/C [23] | other results
CNCc1ccc(-c2cc(-c3nc(-c4ccc(S(=O)(=O)C(C)C)cc4)cnc3N)on2)cc1 + Cn1nnc2c(C(N)=O)ncn2c1=O | 11.5 nM | 19.7 nM | 16.8 nM | < 9.49 nM | < 9.49 nM | 6.53% | 1.07% | 0.07% | 0.11% | 7.5% | 0.64% | 0.13% | 0.1% | 6.3% | 0.72% | 0.13% | 0.13% | 2.14% | 1.16% | 0.14% | viability, T/C [1]: 53%; viability, T/C [2]: 35.3%; viability, T/C [7]: 71%; viability, T/C [8]: 37.9%; viability, T/C [13]: 66.9%; viability, T/C [14]: 32.9%; viability, T/C [19]: 34%; viability, T/C [20]: 9.23%; viability, T/C [24]: 0.14%; viability, T/C [25]: 11%; viability, T/C [26]: 2.34%; viability, T/C [27]: 1.63%; viability, T/C [28]: 1.21%; viability, T/C [29]: 0.17%; viability, T/C [30]: 0.23%
Cc1sc2c(c1C)C(c1ccc(Cl)cc1)=NC(CC(=O)Nc1ccc(O)cc1)c1nnc(C)n1-2 (stereo not given) + Cn1nnc2c(C(N)=O)ncn2c1=O | < 9.49 nM | < 9.49 nM | < 9.49 nM | < 9.49 nM | < 9.49 nM | 0.88% | 0.67% | 0.78% | 0.72% | 0.97% | 0.76% | 0.66% | 0.82% | 1.15% | 0.79% | 0.76% | 0.74% | 1.02% | 0.79% | 0.71% | viability, T/C [1]: 25.5%; viability, T/C [2]: 2.24%; viability, T/C [7]: 36.7%; viability, T/C [8]: 3.37%; viability, T/C [13]: 31.8%; viability, T/C [14]: 1.97%; viability, T/C [19]: 22%; viability, T/C [20]: 1.97%; viability, T/C [24]: 0.82%; viability, T/C [25]: 6.77%; viability, T/C [26]: 1.61%; viability, T/C [27]: 1.08%; viability, T/C [28]: 1.09%; viability, T/C [29]: 0.86%; viability, T/C [30]: 1.03%
Cn1ncnc1[C@H]1c2n[nH]c(=O)c3cc(F)cc(c23)N[C@@H]1c1ccc(F)cc1 + Cn1nnc2c(C(N)=O)ncn2c1=O | < 9.49 nM | < 9.49 nM | < 9.49 nM | < 9.49 nM | < 9.49 nM | 2.71% | 3.04% | 3.81% | 3.16% | 3.93% | 3.87% | 3.65% | 3.16% | 3.49% | 3.08% | 3.95% | 3.46% | 3.47% | 3.72% | 3.28% | viability, T/C [1]: 3.46%; viability, T/C [2]: 3.69%; viability, T/C [7]: 3.37%; viability, T/C [8]: 3.4%; viability, T/C [13]: 3.37%; viability, T/C [14]: 3.82%; viability, T/C [19]: 3.2%; viability, T/C [20]: 3.45%; viability, T/C [24]: 3.57%; viability, T/C [25]: 2.87%; viability, T/C [26]: 3.97%; viability, T/C [27]: 3.4%; viability, T/C [28]: 3.21%; viability, T/C [29]: 3.43%; viability, T/C [30]: 3.17%
O=C(c1cc(Cc2n[nH]c(=O)c3ccccc23)ccc1F)N1CCN(C(=O)C2CC2)CC1 + Cn1nnc2c(C(N)=O)ncn2c1=O | < 94.9 nM | < 94.9 nM | < 94.9 nM | < 94.9 nM | < 94.9 nM | 38.8% | 24.3% | 9.48% | 11.2% | 39.2% | 16.4% | 12.2% | 8.6% | 20.4% | 13.6% | 8.65% | 8.76% | 9.76% | 10.7% | 8.79% | viability, T/C (second compound 1 µM, first compound 9.49 µM): 7.85%; viability, T/C (second compound 1 µM, first compound 30 µM): 6.43%; viability, T/C (second compound 3.16 µM, first compound 9.49 µM): 8.67%; viability, T/C (second compound 3.16 µM, first compound 30 µM): 6.42%; viability, T/C (second compound 10 µM, first compound 9.49 µM): 8.42%; viability, T/C (second compound 10 µM, first compound 30 µM): 5.87%; viability, T/C [24]: 8.73%; viability, T/C (second compound 31.6 µM, first compound 9.49 µM): 8.23%; viability, T/C (second compound 31.6 µM, first compound 30 µM): 6.62%; viability, T/C [27]: 10.7%; viability, T/C [28]: 9.41%; viability, T/C [29]: 10.1%; viability, T/C [30]: 9.99%; viability, T/C (second compound 100 µM, first compound 9.49 µM): 8.37%; viability, T/C (second compound 100 µM, first compound 30 µM): 6.94%
